Measured values taken from patent US7495027B2, “3-aryl-4-hydroxyfuranone compounds and the human and animal health use thereof” (Wyeth, priority 2003, dated 2009).
Values after ≈ are worked out from the molar mass of the structure shown. Like-named read-outs stand apart in the source and are kept apart here.

Key:
[1] = target: E. coli Uridine-diphosphate-N-acetvimuramoyl: L-alanine lipase, MurC (Escherichia coli, UniProt P17952); assay: Inhibitory activity against MurC (E. coli); assay type: biochemical; conditions: (E) E. coli enzyme; for IC50: read-out: MurC IC50 (converted)
E. coli Uridine-diphosphate-N-acetvimuramoyl: L-alanine lipase, MurC, sequence (P17952 whole entry): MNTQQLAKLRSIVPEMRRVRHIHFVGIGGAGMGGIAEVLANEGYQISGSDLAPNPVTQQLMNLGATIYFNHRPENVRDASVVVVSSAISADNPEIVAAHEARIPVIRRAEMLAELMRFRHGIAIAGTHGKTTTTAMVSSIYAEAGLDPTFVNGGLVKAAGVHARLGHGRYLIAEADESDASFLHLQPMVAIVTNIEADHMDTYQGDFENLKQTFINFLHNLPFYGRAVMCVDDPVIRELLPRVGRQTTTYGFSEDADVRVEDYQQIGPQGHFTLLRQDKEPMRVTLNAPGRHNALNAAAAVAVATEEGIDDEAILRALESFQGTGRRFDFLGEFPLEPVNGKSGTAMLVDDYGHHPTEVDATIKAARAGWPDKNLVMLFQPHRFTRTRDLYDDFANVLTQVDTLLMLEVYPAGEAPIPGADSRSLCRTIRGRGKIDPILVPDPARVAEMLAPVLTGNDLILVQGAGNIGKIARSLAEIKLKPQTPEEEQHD
Description: S. aureus and E. coli Uridine-diphosphate-N-acetvimuramoyl: L-alanine lipase, MurC
The buffer is prepared from aqueous reagents with the following final concentrations: 83 mM Tris/HCl (pH 8.0), 50 mM MgC12, and 2 mM ATP.
(§1) Preparation of Enzyme Solution:
A 1 mg/mL stock solution of MurC is prepared in a buffer consisting of 20 mM Tris/HCl (pH 8.5) with 2.5 μM BME. The stock solution is further diluted with the buffer to give a final enzyme concentration of 100 μg/mL for the E. coli stock solution and 70 μg/mL for the S. aureus stock solution.
(§2) Preparation of Test Compound Solutions:
(§3) All test solutions are prepared in DMSO as 10 mg/mL, then diluted with 50 mM Tris/HCl (pH 8.5) to 100 μg/mL.
(§4) Preparation of Stop Solution:
The stop solution is prepared by stirring 1 part 4.2% ammonium molydbate in 4N HCl with 2 parts 0.045% malachite green for 30 min.
In this evaluation, the inhibitory activity of a test compound against MurC, the enzyme which catalyzes the third step of bacterial cell wall bioxynthesis is determined. Experiments are performed by adding 2.5 μl buffer, 2.5 μl 0.5M NH4SO2, 5 μl 2 μM L-Ala, 5 μl enzyme solution and 6.5 μl test compound solution to each well in a 96-well microplate. After a pre-incubation period of 10 mins. at 23° C., 3.75 μl of a 0.75 μM solution of UDP-MurNac is added to each well. Following an incubation period of 10 mins. at 37° C., 210 μl stop solution and 50 μl of a 34% w/v sodium citrate solution are added and color is allowed to develop for 10 mins. at 23° C. (Lanzetta et al., Analytical Biochemistry, 1979, 95) Optical density readings are taken at 660 nm using a Molecular Devices Spectra Max 250 with Soft Max software. Controls are performed using the same procedure and omitting the addition of UDP-MurNac.
Using these values the IC50 is determined by linear regression analysis.

enterococci = assay: Minimum inhibitory concentration, microdilution broth method, enterococci; assay type: cell-based; conditions: Enterococcus faecalis, Mueller-Hinton broth, 18-22 hours at 35° C.
Description: (§5) Evaluation of the Minimum Inhibitory Concentration of Test Compounds Against A Variety of Bacterial Strains
(§6) In this evaluation the minimal inhibitory concentration (MIC) of test compounds against Gram positive and Gram negative bacteria is performed using the microdilution broth method as recommended by the National Committee for Clinical Laboratory Standards (Approved Standards M7-A5 2000). Mueller-Hinton broth is used for the enterobacteriaceae, staphylococci and enterococci. Streptococci are also tested in Mueller-Hinton broth supplemented with 5% horse blood (LHB). Test organisms include recent clinical isolates that are resistant to methicillin, penicillin and/or vancomycin. […].

Streptococci = assay: Minimum inhibitory concentration, microdilution broth method, streptococci; assay type: cell-based; conditions: S. pneumo GC 1894; Mueller-Hinton broth with 5% horse blood, 18-22 hours at 35° C.
Description: as §5, §6

[2] = target: E. coli Enopyruvyl-UPD-N-acetylglucosamine reductase, Mur B (Escherichia coli, UniProt P08373); assay: biochemical; conditions: (E) E. coli enzyme; for IC50: read-out: MurB IC50 (converted)
E. coli Enopyruvyl-UPD-N-acetylglucosamine reductase, Mur B, sequence (P08373 whole entry): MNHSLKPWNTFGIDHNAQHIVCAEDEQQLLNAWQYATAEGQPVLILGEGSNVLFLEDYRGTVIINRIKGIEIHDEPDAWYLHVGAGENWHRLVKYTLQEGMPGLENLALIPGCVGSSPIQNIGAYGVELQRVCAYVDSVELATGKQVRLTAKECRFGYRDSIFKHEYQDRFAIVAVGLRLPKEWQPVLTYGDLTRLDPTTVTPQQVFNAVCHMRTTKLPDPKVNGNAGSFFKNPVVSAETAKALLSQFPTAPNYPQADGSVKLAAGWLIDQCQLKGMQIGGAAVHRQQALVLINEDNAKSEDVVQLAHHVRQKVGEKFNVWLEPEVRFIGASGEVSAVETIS
Description: S. aureus and E. coli Enopyruvyl-UPD-N-acetylglucosamine reductase, Mur B
Preparation of Tris/BME buffer:
Dilute 17.5 uL of aqueous 5 mM BME (2-mercaptoethanol) to 50 mL with 50 mM Tris/HCl (pH 8.0).
as §1
Dilute aqueous MurB stock solution (0.94 mg/mL) with 200 parts 50 mM Tris/2-BME buffer.
Synthesis of Substrate for MurB (MurA Product EP-UDP-GluNAc):
A mixture of 13 mg UDP-N-acetylglucosamine and 5.5 mg phosphoenolpyruvate are dissolved in 10 mL Tris/BME buffer forming 2 mM concentrations of each reagent in solution.
Preparation of Assay Buffer:
The assay buffer is prepared in water from reagents with the following final concentrations: 100 mM Tris/HCl (pH 8.0), 200 μM NADPH, 100 μM MurB substrate, 10 μM 2-mercaptoethanol, and 10 μM KCl.
Experiments are performed by adding 20 μL of a solution of test compound in a mixture of dimethylsulfoxide and water and 30 μL of enzyme solution to a well. After a pre-incubation period of 20 mins. at 23° C., 50 μL of Tris/BME buffer and 100 μL of assay buffer are added. […] Controls are performed using the same procedure and employing 20 μL of a blank dimethylsulfonide and solvent mixture in place of the test compound solution.
Using these values, the IC50 for each test compound is determined by linear regression analysis.

[3] = target: E. coli UDP-N-acetylglucosamine enolpyruvoyl transferase, MurA (Escherichia coli, UniProt P0A749); assay: biochemical; conditions: (E) E. coli enzyme
E. coli UDP-N-acetylglucosamine enolpyruvoyl transferase, MurA, sequence (P0A749 whole entry): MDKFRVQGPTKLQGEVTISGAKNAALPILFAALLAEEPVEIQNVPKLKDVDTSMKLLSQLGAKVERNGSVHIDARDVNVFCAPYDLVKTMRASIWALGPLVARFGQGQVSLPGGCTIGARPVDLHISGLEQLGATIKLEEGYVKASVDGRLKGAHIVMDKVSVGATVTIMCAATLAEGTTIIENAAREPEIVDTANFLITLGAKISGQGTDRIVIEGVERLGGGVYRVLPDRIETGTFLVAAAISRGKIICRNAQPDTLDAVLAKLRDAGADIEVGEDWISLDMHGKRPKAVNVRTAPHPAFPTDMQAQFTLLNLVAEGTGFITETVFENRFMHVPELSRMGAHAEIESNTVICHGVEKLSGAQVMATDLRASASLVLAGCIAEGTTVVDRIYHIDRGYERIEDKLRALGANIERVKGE
Description: Evaluation of the Inhibitory Activity of Test Compounds Against Enzymes which Catalyze Bacterial Cell Wall Biosynthesis
S. aureus and E. coli UDP-N-acetylglucosamine enolpyruvoyl transferase, MurA
as §1
The enzyme solution is prepared by admixing the following: 50 mM Tris/HCl pH 8.0, […] 1 M Tris, 5 mM DTT, […] 1 M DTT, 20% Glycerol 4 ml 50% Glycerol, add water to 10 ml.
as §4
A procedure similar to that described by C. […] Experiments are performed by adding a solution of test compound (in a mixture of dimethylsulfoxide and water) and an enzyme solution to a well. After a pre-incubation period of 10 mintues at 37° C., Tris/BME buffer and assay buffer are added. A start point optical density (OD0) reading is taken at 340 nm immediately following the addition of assay buffer. After incubation for 1 hr at 37° C., the stop solution is added and the color is allowed to develop for 30 minutes.

[4] = target: E. coli Uridine-diphosphate-N-acetylmuramoyl-L-alanine: D-glutamate liease, MurD (Escherichia coli, UniProt P14900); assay: biochemical; conditions: (E) E. coli enzyme
E. coli Uridine-diphosphate-N-acetylmuramoyl-L-alanine: D-glutamate liease, MurD, sequence (P14900 whole entry): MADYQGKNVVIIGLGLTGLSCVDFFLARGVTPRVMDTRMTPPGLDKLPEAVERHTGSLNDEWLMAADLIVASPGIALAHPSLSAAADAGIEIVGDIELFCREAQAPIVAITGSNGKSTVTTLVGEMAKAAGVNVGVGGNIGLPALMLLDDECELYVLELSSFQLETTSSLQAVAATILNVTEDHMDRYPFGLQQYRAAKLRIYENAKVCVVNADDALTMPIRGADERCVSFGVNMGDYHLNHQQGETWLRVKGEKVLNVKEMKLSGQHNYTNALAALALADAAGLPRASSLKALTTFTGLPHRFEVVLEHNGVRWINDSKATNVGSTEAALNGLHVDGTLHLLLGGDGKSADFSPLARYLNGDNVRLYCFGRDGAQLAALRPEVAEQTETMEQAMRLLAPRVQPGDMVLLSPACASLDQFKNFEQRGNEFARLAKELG
Description: S. aureus and E. coli Uridine-diphosphate-N-acetylmuramoyl-L-alanine: D-glutamate liease, MurD
The buffer is prepared from aqueous reagents with the following final concentrations: 83 mM Tris/HCl (pH 8.0), 50 mM MgCl2, and 2 mM ATP.
as §1, §2, §3, §4
In this evaluation, the inhibitory activity of a test compound against MurD, the enzyme which catalyzes the fourth step of bacterial cell wall biosynthesis is determined.

staphylococci = assay: Minimum inhibitory concentration, microdilution broth method, staphylococci; assay type: cell-based; conditions: Staphylococcus aureus, Mueller-Hinton broth, 18-22 hours at 35° C.
Description: as §5, §6

[5] = E. faecalis GC 2242, read-out: MIC E. faecalis GC 2242
[6] = E. faecalis GC 4555, read-out: MIC E. faecalis GC 4555
[7] = S. aureus GC 1131, read-out: MIC S. aureus GC 1131
[8] = S. aureus GC 4543, read-out: MIC S. aureus GC 4543

SMILES	MurC IC50 [1]	MIC (enterococci; [5])	MIC (enterococci; [6])	MIC (Streptococci)	MurB IC50 [2]	MurA IC50 [3]	MurD IC50 [4]	MIC (staphylococci; [7])	MIC (staphylococci; [8])	IC50 [1]	IC50 [2]	IC50 [3]	IC50 [4]
O=C1O/C(=C\c2cc(C(F)(F)F)ccc2F)C(O)=C1c1ccc(-c2ccccc2)c(F)c1 [Example 119]	2 (E) μg/mL	2 µg/mL (≈ 4.5 µM)	2 µg/mL (≈ 4.5 µM)	0.5 µg/mL (≈ 1.13 µM)	1 (E) μg/mL	1 (E) μg/mL	6 (E) μg/mL	2 µg/mL (≈ 4.5 µM)	2 µg/mL (≈ 4.5 µM)	–	–	–	–
CC(C)(C)c1ccc(-c2ccc(C3=C(O)/C(=C/c4cc(C(F)(F)F)ccc4F)OC3=O)cc2)cc1 [Example 120]	–	4 µg/mL (≈ 8.29 µM)	8 µg/mL (≈ 16.6 µM)	0.5 µg/mL (≈ 1.04 µM)	–	–	–	16 µg/mL (≈ 33.2 µM)	16 µg/mL (≈ 33.2 µM)	47.7 µM	10.4 µM	8.29 µM	33.2 µM
CCOc1ccc(-c2ccc(C3=C(O)/C(=C/c4cc(C(F)(F)F)ccc4F)OC3=O)cc2)cc1 [Example 122]	–	8 µg/mL (≈ 17 µM)	32 µg/mL (≈ 68 µM)	1 µg/mL (≈ 2.13 µM)	–	–	–	16 µg/mL (≈ 34 µM)	16 µg/mL (≈ 34 µM)	> 53.1 µM	29.8 µM	34 µM	> 53.1 µM
CC(C)(C)c1ccc(-c2ccc(C3=C(O)/C(=C/c4ccc(Cl)c(C(F)(F)F)c4)OC3=O)cc2)cc1 [Example 123]	–	4 µg/mL (≈ 8.02 µM)	8 µg/mL (≈ 16 µM)	0.5 µg/mL (≈ 1 µM)	–	–	–	16 µg/mL (≈ 32.1 µM)	16 µg/mL (≈ 32.1 µM)	> 50.1 µM	6.01 µM	42.1 µM	> 50.1 µM
CCOc1ccc(-c2ccc(C3=C(O)/C(=C/c4ccc(Cl)c(C(F)(F)F)c4)OC3=O)cc2)cc1 [Example 124]	–	16 µg/mL (≈ 32.9 µM)	32 µg/mL (≈ 65.7 µM)	1 µg/mL (≈ 2.05 µM)	–	–	–	32 µg/mL (≈ 65.7 µM)	32 µg/mL (≈ 65.7 µM)	> 51.3 µM	24.6 µM	28.8 µM	> 51.3 µM
O=C1O/C(=C\c2cc(C(F)(F)F)ccc2Cl)C(O)=C1c1ccc(-c2ccccc2)cc1 [Example 125]	–	4 µg/mL (≈ 9.03 µM)	8 µg/mL (≈ 18.1 µM)	0.5 µg/mL (≈ 1.13 µM)	–	–	–	2 µg/mL (≈ 4.52 µM)	2 µg/mL (≈ 4.52 µM)	2.26 µM	11.3 µM	9.03 µM	45.2 µM
O=C1O/C(=C\c2cc(C(F)(F)F)ccc2Cl)C(O)=C1c1ccc(-c2ccccc2)c(F)c1 [Example 126]	5 (E) μg/mL	1 µg/mL (≈ 2.17 µM)	4 µg/mL (≈ 8.68 µM)	0.25 µg/mL (≈ 0.543 µM)	1 (E) μg/mL	3 (E) μg/mL	9 (E) μg/mL	1 µg/mL (≈ 2.17 µM)	1 µg/mL (≈ 2.17 µM)	–	–	–	–
CCCc1ccc(-c2ccc(C3=C(O)/C(=C/c4cc(C(F)(F)F)ccc4Cl)OC3=O)cc2)cc1 [Example 127]	–	2 µg/mL (≈ 4.12 µM)	4 µg/mL (≈ 8.25 µM)	0.25 µg/mL (≈ 0.516 µM)	–	–	–	4 µg/mL (≈ 8.25 µM)	2 µg/mL (≈ 4.12 µM)	> 51.6 µM	12.4 µM	8.25 µM	> 51.6 µM
CC(C)(C)c1ccc(-c2ccc(C3=C(O)/C(=C/c4cc(C(F)(F)F)ccc4Cl)OC3=O)cc2)cc1 [Example 128]	–	2 µg/mL (≈ 4.01 µM)	8 µg/mL (≈ 16 µM)	0.25 µg/mL (≈ 0.501 µM)	–	–	–	8 µg/mL (≈ 16 µM)	4 µg/mL (≈ 8.02 µM)	48.1 µM	10 µM	8.02 µM	> 50.1 µM
CCOc1ccc(-c2ccc(C3=C(O)/C(=C/c4cc(C(F)(F)F)ccc4Cl)OC3=O)cc2)cc1 [Example 129]	–	2 µg/mL (≈ 4.11 µM)	4 µg/mL (≈ 8.22 µM)	0.25 µg/mL (≈ 0.513 µM)	–	–	–	2 µg/mL (≈ 4.11 µM)	2 µg/mL (≈ 4.11 µM)	14.4 µM	4.11 µM	4.11 µM	14.4 µM
CCCc1ccc(-c2ccc(C3=C(O)/C(=C/c4cccc(C(F)(F)F)c4)OC3=O)cc2)cc1 [Example 131]	–	4 µg/mL (≈ 8.88 µM)	8 µg/mL (≈ 17.8 µM)	0.25 µg/mL (≈ 0.555 µM)	–	–	–	32 µg/mL (≈ 71 µM)	16 µg/mL (≈ 35.5 µM)	40 µM	4.44 µM	8.88 µM	20 µM
CC(C)(C)c1ccc(-c2ccc(C3=C(O)/C(=C/c4cccc(C(F)(F)F)c4)OC3=O)cc2)cc1 [Example 132]	–	4 µg/mL (≈ 8.61 µM)	8 µg/mL (≈ 17.2 µM)	0.25 µg/mL (≈ 0.538 µM)	–	–	–	16 µg/mL (≈ 34.4 µM)	16 µg/mL (≈ 34.4 µM)	51.7 µM	6.46 µM	6.46 µM	17.2 µM
